# Assay results from the supplement of paper PMC10307832.
# Columns and labels:
# Test in all cases: relative viability (nuclei count vs DMSO), 5 days (fraction); higher = more cells survive
# [1] = compound: C1CC(C1)(C(=O)O)C(=O)O.[NH2-].[NH2-].[Pt+2] [Carboplatin] + Nc1nc2[nH]cc(CCc3ccc(C(=O)N[C@@H](CCC(=O)O)C(=O)O)cc3)c2c(=O)[nH]1 [Pemetrexed] (partner 0.2 µM)
# Summary of the method: (§1)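 Cells from lung cancer lines were seeded into 1536-well plates and, one day later, dosed by pin tool. Treatments were either a single drug or a fixed dose of an anchor drug with five library-drug doses (not always all listed) in √10 steps. After 5 days, nuclei were stained in a one-step fixation (final 0.05% Triton X-100, 1% formaldehyde, 1 ug/ml Hoechst) and counted on 4× images, and relative viability is the treated-to-vehicle nuclei ratio, as the median of duplicate plates.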
# [2] = compound: NS(=O)(=O)OC[C@@H]1C[C@@H](n2ccc3c(N[C@H]4CCc5ccccc54)ncnc32)C[C@@H]1O [MLN4924] + Cc1nc(Nc2ncc(C(=O)Nc3c(C)cccc3Cl)s2)cc(N2CCN(CCO)CC2)n1 [Dasatinib] (partner 0.075 µM)
# Summary of the method: as §1
# [3] = compound: CC[C@H](C)N1C=C(C2=C(C=C(C=C21)C3=CN=C(C=C3)N4CCNCC4)C(=O)NCC5=C(C=C(NC5=O)C)C)C [GSK126] + NC(=O)Nc1cc(-c2cccc(F)c2)sc1C(=O)N[C@H]1CCCNC1 [AZD7762] (partner 0.2 µM)
# Summary of the method: as §1
# [4] = compound: NS(=O)(=O)OC[C@@H]1C[C@@H](n2ccc3c(N[C@H]4CCc5ccccc54)ncnc32)C[C@@H]1O [MLN4924] + COc1cc2c(Oc3ccc(NC(=O)C4(C(=O)Nc5ccc(F)cc5)CC4)cc3F)ccnc2cc1OCCCN1CCOCC1 [Foretinib] (partner 0.25 µM)
# Summary of the method: as §1
Cell Line,relative viability ([1]; first compound 0.08 µM),relative viability ([1]; first compound 0.253 µM),relative viability ([1]; first compound 0.8 µM),relative viability ([1]; first compound 2.53 µM),relative viability ([1]; first compound 8 µM),relative viability ([2]; first compound 0.04 µM),relative viability ([2]; first compound 0.1265 µM),relative viability ([2]; first compound 0.4 µM),relative viability ([2]; first compound 1.265 µM),relative viability ([2]; first compound 4 µM),relative viability ([3]; first compound 0.08 µM),relative viability ([3]; first compound 0.253 µM),relative viability ([3]; first compound 0.8 µM),relative viability ([3]; first compound 2.53 µM),relative viability ([3]; first compound 8 µM),relative viability ([4]; first compound 0.04 µM),relative viability ([4]; first compound 0.1265 µM),relative viability ([4]; first compound 0.4 µM),relative viability ([4]; first compound 1.265 µM),relative viability ([4]; first compound 4 µM)
PC-3 [JPC-3],1.28,0.986,1.02,0.939,0.889,1.04,1.09,0.897,0.36,0.27,0.855,0.855,0.957,0.871,0.766,1.05,0.976,0.688,0.375,0.293
NCI-H2085,1.03,0.846,0.974,0.948,0.899,0.215,0.226,0.339,0.393,0.292,1.03,0.973,0.927,0.907,0.957,1.04,0.855,0.809,0.655,0.401
EKVX,0.38,0.342,0.402,0.296,0.329,0.588,0.261,0.471,0.193,0.238,0.648,0.747,0.753,0.787,0.672,0.718,0.748,0.59,0.135,0.155
NCI-H2405,1.16,1.03,1.05,0.977,0.737,0.39,0.491,0.428,0.242,0.205,0.794,0.603,0.695,0.715,0.611,1.08,0.928,0.76,0.319,0.293
201T,0.362,0.343,0.344,0.36,0.327,0.69,0.615,0.598,0.319,0.318,0.704,0.622,0.617,0.65,0.567,1.23,0.842,0.561,0.194,0.175
NCI-H1755,0.436,0.371,0.437,0.443,0.386,0.417,0.464,0.463,0.237,0.221,0.468,0.446,0.395,0.461,0.412,0.979,0.804,0.421,0.243,0.184
NCI-H647,0.176,0.18,0.172,0.203,0.143,0.235,0.195,0.113,0.0353,0.0361,0.465,0.495,0.497,0.507,0.371,0.818,0.848,0.188,0.0561,0.0661
NCI-H1651,0.702,0.61,0.552,0.534,0.56,0.411,0.473,0.431,0.167,0.116,0.534,0.416,0.467,0.537,0.364,0.74,0.754,0.656,0.436,0.173
NCI-H1437,0.33,0.28,0.301,0.307,0.298,0.276,0.456,0.556,0.235,0.11,1.19,1.06,1.05,1.1,0.966,0.835,1.15,0.739,0.465,0.22
NCI-H1975,0.297,0.266,0.277,0.298,0.268,0.39,0.385,0.483,0.678,0.324,0.775,0.703,0.682,0.784,0.64,0.962,1.08,1.27,0.488,0.207
BEN,1.02,0.931,0.772,0.759,0.738,0.309,0.252,0.198,0.155,0.146,0.718,0.605,0.785,0.744,0.612,0.491,0.307,0.219,0.169,0.129
NCI-H441,0.289,0.258,0.271,0.243,0.241,0.603,0.47,0.337,0.212,0.141,1.29,0.965,1.03,1.1,1.08,0.923,0.79,0.515,0.238,0.183
NCI-H2170,0.246,0.252,0.265,0.286,0.236,0.866,0.767,0.264,0.127,0.129,0.951,0.966,0.823,0.86,0.815,1.02,0.277,0.28,0.199,0.227
NCI-H3122,0.198,0.202,0.189,0.191,0.183,0.148,0.487,0.147,0.056,0.071,0.968,1.01,0.956,1.03,1.01,0.903,0.385,0.232,0.106,0.0762
SW 900,0.495,0.468,0.488,0.525,0.496,0.51,0.433,0.576,0.294,0.139,0.765,0.559,0.582,0.585,0.58,0.762,0.682,0.315,0.179,0.107
NCI-H1355,1.06,1.1,1.09,1,0.892,0.715,0.792,0.767,0.481,0.216,0.814,0.658,0.688,0.746,0.479,0.943,0.91,0.889,0.472,0.201

Cell Line,relative viability ([1]; first compound 0.08 µM),relative viability ([1]; first compound 0.253 µM),relative viability ([1]; first compound 0.8 µM),relative viability ([1]; first compound 2.53 µM),relative viability ([1]; first compound 8 µM),relative viability ([2]; first compound 0.04 µM),relative viability ([2]; first compound 0.1265 µM),relative viability ([2]; first compound 0.4 µM),relative viability ([2]; first compound 1.265 µM),relative viability ([2]; first compound 4 µM),relative viability ([3]; first compound 0.08 µM),relative viability ([3]; first compound 0.253 µM),relative viability ([3]; first compound 0.8 µM),relative viability ([3]; first compound 2.53 µM),relative viability ([3]; first compound 8 µM),relative viability ([4]; first compound 0.04 µM),relative viability ([4]; first compound 0.1265 µM),relative viability ([4]; first compound 0.4 µM),relative viability ([4]; first compound 1.265 µM),relative viability ([4]; first compound 4 µM)
NCI-H2342,0.786,0.844,0.791,0.834,0.762,0.343,0.344,0.339,0.354,0.355,0.543,0.425,0.477,0.619,0.58,1.17,1.06,1.24,0.76,0.472
NCI-H1734,0.423,0.422,0.495,0.408,0.419,0.636,0.588,0.305,0.0902,0.102,0.597,0.497,0.526,0.576,0.531,0.938,0.866,0.241,0.145,0.134
LXF-289,0.981,0.998,0.902,0.895,0.744,0.215,0.203,0.251,0.0849,0.0735,1.16,1.11,0.956,1.1,1.09,0.846,0.564,0.565,0.188,0.0965
RERF-LC-KJ,0.492,0.475,0.479,0.458,0.438,0.717,0.661,0.266,0.206,0.242,–,1.09,0.959,1.1,1.03,0.745,0.482,0.247,0.202,0.216
NCI-H2087,0.619,0.647,0.618,0.632,0.604,0.742,0.574,0.533,0.126,0.0652,1.52,1.31,1.18,1.41,1.43,1.13,0.669,0.419,0.107,0.0968
NCI-H1793,1.1,0.908,0.918,0.866,0.93,0.384,0.366,0.408,0.345,0.325,0.646,0.394,0.299,0.592,0.292,0.822,1.08,0.957,0.461,0.256
HCC-827,0.253,0.244,0.259,0.234,0.245,0.483,0.608,0.771,0.265,0.187,0.214,0.191,0.24,0.232,0.196,0.993,0.591,0.568,0.238,0.144
NCI-H1395,1.02,0.983,0.814,0.61,0.534,0.474,0.493,0.552,0.507,0.331,0.392,0.381,0.399,0.399,0.342,0.951,0.818,0.538,0.41,0.362
NCI-H23,0.707,0.648,0.634,0.564,0.631,0.722,0.785,0.681,0.335,0.208,0.248,0.214,0.208,0.29,0.205,0.968,0.839,0.767,0.285,0.184
HARA,0.232,0.201,0.241,0.247,0.246,0.362,0.358,0.311,0.0814,0.0506,0.379,0.397,0.4,0.266,0.203,0.838,0.537,0.83,0.0708,0.0645
HCC-366,0.156,0.153,0.164,0.18,0.145,0.67,0.702,0.967,0.627,0.0684,0.33,0.251,0.201,0.293,0.177,0.907,0.975,0.925,0.447,0.0537
NCI-H838,0.271,0.285,0.236,0.244,0.251,0.268,0.271,0.245,0.199,0.219,1.1,0.932,0.873,0.916,0.857,0.684,0.503,0.22,0.174,0.16
HCC-78,0.898,0.905,0.893,0.883,0.854,0.412,0.307,0.604,0.314,0.152,0.675,0.652,0.604,0.832,0.736,0.583,0.653,0.84,0.247,0.194
ChaGo-K-1,0.262,0.261,0.253,0.249,0.269,0.414,0.376,0.323,0.184,0.17,0.881,0.87,0.836,0.893,0.874,0.785,0.503,0.336,0.244,0.22
EPLC-272H,0.368,0.309,0.359,0.301,0.326,0.499,0.448,0.071,0.108,0.11,0.272,0.296,0.209,0.262,0.112,0.582,0.216,0.0552,0.0953,0.109
